One assay concerns the target JAK1 (Homo sapiens (Human), UniProt P23458). Briefly: Jak biochemical HTRF assay, JAK1. The note with it: HTRF biochemical assay, recombinant GST-tagged catalytic domain; read-out: JAK1 IC50. (Time-resolved FRET reads energy transfer from a long-lived donor to a nearby acceptor.)
A further assay has as its target JAK2 (Homo sapiens (Human), UniProt O60674). Briefly: Jak biochemical HTRF assay, JAK2. The settings on record: HTRF biochemical assay, recombinant GST-tagged catalytic domain; read-out: JAK2 IC50.

Here are results for 24 molecules from US9725445B2, “Cycloalkyl nitrile pyrazolo pyridones as Janus kinase inhibitors” (Merck Sharp & Dohme Corp., priority 2013, dated 2017).

Structures can show the parent of a compound that is named as a salt.

Chain of JAK2 (O60674 849-1124): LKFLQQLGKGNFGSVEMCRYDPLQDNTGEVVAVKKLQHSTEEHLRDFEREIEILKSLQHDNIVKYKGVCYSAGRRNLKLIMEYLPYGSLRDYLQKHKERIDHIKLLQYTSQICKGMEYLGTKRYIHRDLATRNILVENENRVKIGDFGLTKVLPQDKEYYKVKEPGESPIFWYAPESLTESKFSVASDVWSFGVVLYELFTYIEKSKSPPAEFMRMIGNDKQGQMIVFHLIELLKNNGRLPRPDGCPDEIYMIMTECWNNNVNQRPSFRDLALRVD
Chain of JAK1 (P23458 875-1153): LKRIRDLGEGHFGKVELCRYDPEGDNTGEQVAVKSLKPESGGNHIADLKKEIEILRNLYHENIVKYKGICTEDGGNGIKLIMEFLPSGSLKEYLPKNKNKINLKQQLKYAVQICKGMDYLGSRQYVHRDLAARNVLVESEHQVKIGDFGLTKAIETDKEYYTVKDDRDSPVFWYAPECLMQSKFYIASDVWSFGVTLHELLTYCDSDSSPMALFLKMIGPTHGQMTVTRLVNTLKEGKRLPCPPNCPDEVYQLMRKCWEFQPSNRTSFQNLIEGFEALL

As a reminder, the IC50 is the point on the concentration scale where inhibition reaches its midpoint. As for `N#C[C@H]1CCCC[C@@H]1n1nc(Nc2ccc(F)c(CN)c2)c2c(=O)[nH]ccc21` [Example 6-2, (1S,2S)-2-(3-((3-(aminomethyl)-4-fluorophenyl)amino)-4-oxo-4,5-dihydro-1H-pyrazolo[4,3-c]pyridin-1-yl)cyclohexanecarbonitrile], the IC50 at JAK1 turned out to be 0.75 nM; at JAK2, 2.3 nM.
The matching figures for `Cn1ccc(NC(=O)Cc2cccc(Nc3nn([C@H]4CCCC[C@@H]4C#N)c4cc[nH]c(=O)c34)c2)n1` [Example 3-11, 2-[3-({1-[(1S,2S)-2-cyanocyclohexyl]-4-oxo-4,5-dihydro-1H-pyrazolo[4,3-c]pyridin-3-yl}amino)phenyl]-N-(1-methyl-1H-pyrazol-3-yl)acetamide]: 0.41 nM and 3.3 nM.
Taken in the same sequence, the figures for `CC(C)N1Cc2cc(Nc3nn([C@H]4CCCC[C@@H]4C#N)c4cc[nH]c(=O)c34)ccc2C1C` (single isomer, unassigned) [Example 19-2, (1S,2S)-2-(3-(((R or S)-2-isopropyl-1-methylisoindolin-5-yl)amino)-4-oxo-4,5-dihydro-1H-pyrazolo[4,3-c]pyridin-1-yl)cyclohexanecarbonitrile] were 0.47 nM and 0.45 nM.
The matching figures for `CC(C)(C)N1Cc2cc(Nc3nn([C@H]4CCCC[C@@H]4C#N)c4cc[nH]c(=O)c34)ccc2S1(=O)=O` [Example 3-53, (1S,2S)-2-{3-[(2-tert-butyl-1,1-dioxido-2,3-dihydro-1,2-benzisothiazol-5-yl)amino]-4-oxo-4,5-dihydro-1H-pyrazolo[4,3-c]pyridin-1-yl}cyclohexanecarbonitrile]: 0.039 nM and 0.19 nM.
On to `CNS(=O)(=O)c1ccc(Nc2nn([C@H]3CCCC[C@@H]3C#N)c3cc[nH]c(=O)c23)cc1` [Example 3-144, 4-({1-[(1S,2S)-2-cyanocyclohexyl]-4-oxo-4,5-dihydro-1H-pyrazolo[4,3-c]pyridin-3-yl}amino)-N-methylbenzenesulfonamide], for which the IC50 worked out at 0.099 nM on JAK1 and 0.59 nM at JAK2.
For `N#C[C@H]1CCCC[C@@H]1n1nc(Nc2ccc3c(c2)CNC3)c2c(=O)[nH]ccc21` [Example 12-1, (1S,2S)-2-(3-(Isoindolin-5-ylamino)-4-oxo-4,5-dihydro-H-pyrazolo[4,3-c]pyridin-1-yl)cyclohexanecarbonitrile], the IC50 on JAK1 was determined as 0.31 nM; on JAK2, 0.86 nM.
The matching figures for `N#C[C@H]1CCCC[C@@H]1n1nc(Nc2cccc(CNC(=O)c3ncccn3)c2)c2c(=O)[nH]ccc21` [Example 3-17, N-[3-({1-[(1S,2S)-2-cyanocyclohexyl]-4-oxo-4,5-dihydro-1H-pyrazolo[4,3-c]pyridin-3-yl}amino)benzyl]pyrimidine-2-carboxamide]: 0.91 nM and 5.8 nM.
The matching figures for `N#C[C@H]1CCCC[C@@H]1n1nc(Nc2ccc3c(c2)CC(C(=O)O)C3)c2c(=O)[nH]ccc21` (stereo partly drawn) [Example 13-1, 5-((1-((1S,2S)-2-Cyanocyclohexyl)-4-oxo-4,5-dihydro-1H-pyrazolo[4,3-c]pyridin-3-yl)amino)-2,3-dihydro-1H-indene-2-carboxylic acid]: 0.47 nM and 3.4 nM.
For `CC(C)C(c1ccc(Nc2nn([C@H]3CCCC[C@@H]3C#N)c3cc[nH]c(=O)c23)cc1)n1cc(C(=O)OC(C)(C)C)nn1` (single isomer, unassigned) [Example 15-58, tert-butyl 1-{(1R or 1S)-1-[4-({1-[(1S,2S)-2-cyanocyclohexyl]-4-oxo-4,5-dihydro-1H-pyrazolo[4,3-c]pyridin-3-yl}amino)phenyl]-2-methylpropyl}-1H-1,2,3-triazole-4-carboxylate], the figures for the IC50 on JAK1 and on JAK2 were 1.8 nM and 3.1 nM, respectively.
Turning to `CC(C)N1Cc2ccc(Nc3nn([C@H]4CCCC[C@@H]4C#N)c4cc[nH]c(=O)c34)cc2C1` [Example 3-74, (1S,2S)-2-(3-{[2-(1-methylethyl)-2,3-dihydro-1H-isoindol-5-yl]amino}-4-oxo-4,5-dihydro-1H-pyrazolo[4,3-c]pyridin-1-yl)cyclohexanecarbonitrile], the IC50 at JAK1 stood at 0.14 nM; at JAK2, 0.29 nM.
Taken in the same sequence, the figures for `CCN1Cc2ccc(Nc3nn([C@H]4CCCC[C@@H]4C#N)c4cc[nH]c(=O)c34)cc2C1` [Example 3-76, (1S,2S)-2-{3-[(2-ethyl-2,3-dihydro-1H-isoindol-5-yl)amino]-4-oxo-4,5-dihydro-1H-pyrazolo[4,3-c]pyridin-1-yl}cyclohexanecarbonitrile] were 0.41 nM and 2.1 nM.
Take `N#C[C@H]1CCCC[C@@H]1n1nc(Nc2ccc3c(c2)CNS3(=O)=O)c2c(=O)[nH]ccc21` [Example 3-54, (1S,2S)-2-{3-[(1,1-dioxido-2,3-dihydro-1,2-benzisothiazol-5-yl)amino]-4-oxo-4,5-dihydro-1H-pyrazolo[4,3-c]pyridin-1-yl}cyclohexanecarbonitrile]: the IC50 at JAK1 stood at 0.051 nM; on JAK2, 0.62 nM.
With `N#C[C@H]1C[C@H](N2CCC2)CC[C@@H]1n1nc(Nc2ccc(Cl)c(F)c2)c2c(=O)[nH]ccc21` [Example 5-3, (1S,2S,5R)-5-(azetidin-1-yl)-2-(3-((4-chloro-3-fluorophenyl)amino)-4-oxo-4,5-dihydro-1H-pyrazolo[4,3-c]pyridin-1-yl)cyclohexanecarbonitrile], the IC50 stood at 1.7 nM at JAK1 and 40 nM on JAK2.
Taken in the same sequence, the figures for `N#C[C@H]1CCCC[C@@H]1n1nc(Nc2ccc3c(c2)CCS3(=O)=O)c2c(=O)[nH]ccc21` [Example 3-59, (1S,2S)-2-{3-[(1,1-dioxido-2,3-dihydro-1-benzothiophen-5-yl)amino]-4-oxo-4,5-dihydro-1H-pyrazolo[4,3-c]pyridin-1-yl}cyclohexanecarbonitrile] were 0.062 nM and 0.71 nM.
For the molecule `Cc1cc(Nc2nn([C@H]3CCCC[C@@H]3C#N)c3cc[nH]c(=O)c23)ccc1C(C(C)C)n1ccnn1` (single isomer, unassigned) [Example 15-38, (1S,2S)-2-[3-({3-methyl-4-[(1R or 1S)-2-methyl-1-(1H-1,2,3-triazol-1-yl)propyl]phenyl}amino)-4-oxo-4,5-dihydro-1H-pyrazolo[4,3-c]pyridin-1-yl]cyclohexanecarbonitrile], the IC50 at JAK1 turned out to be 0.06 nM; on JAK2 it was 0.15 nM.
The matching figures for `N#C[C@H]1CCCC[C@@H]1n1nc(Nc2ccc3c(c2)CN(CC(F)(F)F)C3)c2c(=O)[nH]ccc21` [Example 3-61, (1S,2S)-2-(4-oxo-3-{[2-(2,2,2-trifluoroethyl)-2,3-dihydro-1H-isoindol-5-yl]amino}-4,5-dihydro-1H-pyrazolo[4,3-c]pyridin-1-yl}cyclohexanecarbonitrile]: 0.55 nM and 1.1 nM.
For the molecule `N#C[C@H]1CCCC[C@@H]1n1nc(Nc2ccc(C3(O)COC3)cc2)c2c(=O)[nH]ccc21` [Example 15-9, (1S,2S)-2-(3-{[4-(3-hydroxyoxetan-3-yl)phenyl]amino}-4-oxo-4,5-dihydro-1H-pyrazolo[4,3-c]pyridin-1-yl)cyclohexanecarbonitrile], the IC50 was 0.32 nM at JAK1 and 1.1 nM on JAK2.
The matching figures for `CN(C(C)(C)C)S(=O)(=O)c1ccc(Nc2nn([C@H]3CCCC[C@@H]3C#N)c3cc[nH]c(=O)c23)cc1` [Example 3-142, N-tert-butyl-4-({1-[(1S,2S)-2-cyanocyclohexyl]-4-oxo-4,5-dihydro-1H-pyrazolo[4,3-c]pyridin-3-yl}amino)-N-methylbenzenesulfonamide]: 0.29 nM and 0.68 nM.
The matching figures for `N#C[C@H]1CCCC[C@@H]1n1nc(Nc2ccc(C(=O)O)cc2)c2c(=O)[nH]ccc21` [Example 16-1, 4-((1-((1S,2S)-2-Cyanocyclohexyl)-4-oxo-4,5-dihydro-1H-pyrazolo[4,3-c]pyridin-3-yl)amino)benzoic acid, HCl]: 0.16 nM and 3.4 nM.
The matching figures for `Cc1cc(Nc2nn([C@H]3CCCC[C@@H]3C#N)c3cc[nH]c(=O)c23)ccc1C(C)(C)n1ccnn1` [Example 15-33, (1S,2S)-2-[3-({3-methyl-4-[1-methyl-1-(1H-1,2,3-triazol-1-yl)ethyl]phenyl}amino)-4-oxo-4,5-dihydro-1H-pyrazolo[4,3-c]pyridin-1-yl]cyclohexanecarbonitrile]: 0.17 nM and 0.17 nM.
Regarding `N#C[C@H]1C[C@@H](N2CCC2)CC[C@@H]1n1nc(Nc2ccc(C(F)(F)F)cc2)c2c(=O)[nH]ccc21` [Example 5-8, (1S,2S,5S)-5-(azetidin-1-yl)-2-(4-oxo-3-((4-(trifluoromethyl)phenyl)amino)-4,5-dihydro-1H-pyrazolo[4,3-c]pyridin-1-yl)cyclohexanecarbonitrile], the IC50 at JAK1 was determined as 0.88 nM; on JAK2, 22 nM.
The matching figures for `CN(C)S(=O)(=O)c1ccc(Nc2nn([C@H]3CCCC[C@@H]3C#N)c3cc[nH]c(=O)c23)cc1` [Example 3-6, 4-({1-[(1S,2S)-2-cyanocyclohexyl]-4-oxo-4,5-dihydro-1H-pyrazolo[4,3-c]pyridin-3-yl}amino)-N,N-dimethylbenzenesulfonamide]: 0.11 nM and 0.33 nM.
Taken in the same sequence, the figures for `CC(C)(C)N1Cc2cc(Nc3nn([C@H]4CCCC[C@@H]4C#N)c4cc[nH]c(=O)c34)ccc2C1=O` [Example 15-20, (1S,2S)-2-{3-[(2-tert-butyl-1-oxo-2,3-dihydro-1H-isoindol-5-yl)amino]-4-oxo-4,5-dihydro-1H-pyrazolo[4,3-c]pyridin-1-yl}cyclohexanecarbonitrile] were 0.069 nM and 0.48 nM.
Taken in the same sequence, the figures for `N#C[C@H]1CCCC[C@@H]1n1nc(Nc2cc(F)cc(CN)c2)c2c(=O)[nH]ccc21` [Example 6-3, (1S,2S)-2-(3-((3-(aminomethyl)-5-fluorophenyl)amino)-4-oxo-4,5-dihydro-1H-pyrazolo[4,3-c]pyridin-1-yl)cyclohexanecarbonitrile] were 1.4 nM and 2.3 nM.
